Entries after “also recorded” stand apart in the source; their conditions may differ.
What was measured:
[1] = system: UDP glucuronyl transferase; conditions: rat, microsomes, 0.5 h
[2] = system: UDP glucuronyl transferase; assay: Rat liver microsomal glucuronidation; conditions: for Vmax: detergent-activated rat liver microsomes, 37° C., 30 min, average of two to three experiments; for substrate for UDP glucuronyl transferase: rat liver microsomes, in vitro
[3] = system: MCF 7 human breast cancer cells; assay: Effect on proliferation of MCF 7 cells grown in the presence of estrogens; conditions: cell numbers after five days, FIG. 3
Description: The antiestrogenic effect of the nonsteroidal triarylethylene compounds of Formula I is measured by comparing the growth of MCF7 breast cancer cells in the presence and absence of the compounds, according to the method described below for 4-hydroxy tamoxifen acid.
Cell numbers were determined five days later, after approximately four population doublings in drug free controls. Data shown are expressed as percentages of cell numbers in control flasks and are averages of six estimates from two separate experiments.

[4] = target: T1, estrogen receptor (Rattus norvegicus, UniProt P06211); assay: Estrogen receptor affinity: competition with [3H]estradiol binding in rat uterine cytosol; conditions: for estrogen receptor affinity relative to estradiol (affinity=100): estradiol = 100
T1 construct: Uteri from Sprague-Dawley rats (200-250g) are homogenized; from tissue; host or cells: rat uterus, 100000g supernatant (cytosol), Sprague-Dawley
T1 sequence (P06211 1-600): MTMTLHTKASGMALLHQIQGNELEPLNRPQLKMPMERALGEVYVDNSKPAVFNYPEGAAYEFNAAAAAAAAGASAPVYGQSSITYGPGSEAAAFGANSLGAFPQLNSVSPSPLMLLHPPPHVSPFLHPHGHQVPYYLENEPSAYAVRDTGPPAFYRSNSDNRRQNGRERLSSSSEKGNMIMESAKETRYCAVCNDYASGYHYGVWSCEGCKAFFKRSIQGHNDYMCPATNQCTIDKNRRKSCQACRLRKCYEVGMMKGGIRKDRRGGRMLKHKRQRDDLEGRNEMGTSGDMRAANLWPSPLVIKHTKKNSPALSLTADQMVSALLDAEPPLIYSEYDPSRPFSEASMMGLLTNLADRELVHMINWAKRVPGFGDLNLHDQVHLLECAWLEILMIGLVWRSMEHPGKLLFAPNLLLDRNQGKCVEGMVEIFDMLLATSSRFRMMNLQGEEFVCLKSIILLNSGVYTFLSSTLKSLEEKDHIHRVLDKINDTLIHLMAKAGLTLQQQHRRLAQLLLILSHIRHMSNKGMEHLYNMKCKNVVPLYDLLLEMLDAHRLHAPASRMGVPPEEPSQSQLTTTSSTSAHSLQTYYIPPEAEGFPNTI
Description: The estrogen receptor affinity of the triarylethylenes of Formula I can be measured according to the method of Ruenitz, et.al., J. Med. Chem., 25:1056, (1982).
[^3 H]Estradiol (58 Ci/mmol) can be obtained from Amersham Corp., and its radiochemical purity checked by TLC. Uteri from Sprague-Dawley rats (200-250g) are homogenized (1 uterus/2 mL) in ice-cold 10 mM Tris buffer, pH 7.4, that contains 1.5 mM EDTA and 3 mM sodium azide (TEA buffer). The homogenate is centrifuged at 100000g for 1 hour at 4° C. Incubation mixtures should contain 200-μμL aliquots of the supernatant, and 10 μL of a solution of 1.1×10^-7 M [^3 H]estradiol in dimethylacetamide, and 10 μL unlabeled competitor in dimethylacetamide. Ten concentrations of competitor are used ranging from 1×10^-9 to 5×10^-5 M. Control incubations should contain 10 μL of solvent alone. Nonspeoifio binding is determined in similarly prepared incubations that contain 1×10^-5 M estradiol. Incubations should be performed in triplicate, in 5-mL polypropylene centrifuge tubes, at 2°- 4° C. for 4 hours. Then a suspension of 400 μL of dextran-coated charcoal [0.1% dextran (Sigma no. D-1390), 1% acid-washed Norit A in TEA buffer]is added, and the incubation continues for 15 minutes at 2°-4° C. Tubes are then centrifuged at 1000g for 10 minutes, and 400-μL aliquots are dissolved in 5 mL of Scintivense (Fisher), Bound [^3 H]estradiol is determined by liquid scintillation spectrometry. Quench corrections are made by the external standard method.
The estrogen receptor affinity of 4-hydroxy tamoxifen acid was measured according to the assay described in Example 2. FIG. 2 is a graph of the effect of increasing concentrations (nM) of 4-HTA (--.quadrature.--), estradiol (--O--), and TA (-- --) on the binding of [^3 H]estradiol in uterine cytosol from immature rats. Specifically bound ^3 H from [^3 H]estradiol is plotted as a percentage of that bound in control incubations in the absence of 4-HTA, estradiol, or TA. Estradiol and tamoxifen, the non-hydroxylated analog of 4-HTA, were used as standards.

[5] = Distribution and elimination of TA and 4-HTA after intraperitoneal [14C]TAM in immature female rats; format: in vivo, rat; conditions: for Percent of Dose Present as: Total 14C: i.p. [14C]TAM, rat, values ±5%
Description: Animals and Dosing. Female Sprague-Dawley rats, 45-55 grams each, were maintained on a normal laboratory diet and were divided into groups of four to six per experiment. […] This solution was prepared by dissolving the drug in 10 ml of 1% citric acid in N,N-dimethylacetamide and diluting the solution with 0.2 ml of 1.15% aqueous KCl just before use. Animals were housed in polycarbonate metabolism cages equipped for separate collection of urine and feces.
Processing of Biological Samples. At 24 and 48 hours after dosing, animals were killed by decapitation. Uteri and livers were removed and weights were recorded. Pooled uteri, and livers were homogenized in 10 volumes of methanol. Each homogenate was centrifuged at 400×g for 10 min. Triplicate 1.0 ml aliquots of supernatants were counted for radioactivity in 8 ml of Ecoscint (National Diagnostics, Somerville, N.J.). Collected urine was lyophilized. The residue was sonicated in methanol, and the mixture was filtered and the solid residue was washed with methanol to make the final volume equal to the original urine volume. This procedure removed endogenous polar materials with no loss of radioactivity. Feces collected 24 and 48 hr after dosing were homogenized in 10 volumes of methanol. The homogenate was centrifuged and analyzed for radioactivity as described above.
Extraction and Analysis. Unlabelled TA and 4-HTA […] were added as standards to methanol extracts of tissues, urine, and feces. A third standard, TA glyOH, was added only to the urine extract. Each solution was then concentrated under a stream of N2. To each residue was added 0.5 ml of 1% aqueous NaOH. The resulting mixture (pH≥11) was extracted serially two times with 1.0 ml portions of ether. Radioactivity present in these extracts was determined. To the aqueous phase was added 0.1 ml of 10% HCl, and the mixture (pH≤1) was extracted as before. Radioactivity was determined in some of these extracts. Otherwise, they were concentrated under a stream of N2. Each residue was dissolved in […] of acetone and the solution was applied to a TLC plate. Developed plates were segmented using the locations of reference compounds under UV light of 254 nm wavelength for guidance. Radioactivity was determined in segments containing reference compounds, and in some cases in all segments from TLC plates.
The specific activity of TA and 4-HTA eluted from developed chromatograms was determined by immersion of the segments containing these metabolites in a solution of 2.8% ammonia in methanol for 12 hr. Radioactivity in aliquots of eluates was determined, and quantities of TA and 4-HTA were estimated from absorbance of solutions at 283 nm using e283 =1.2×10^4 M^-1 cm-^-1 for each compound. Subsequent processing of eluates was conducted according to methods known in the art.

[6] = system: MCF7 breast cancer cells; assay: Reversal of the inhibitory effect of tamoxifen on MCF 7 cell growth; format: cell-based, human; conditions: 1 μM tamoxifen, FIG. 4
Description: Cells were grown as summarized in Example 4 and tamoxifen was added to flasks as a solution in DMSO […], as were increasing concentrations of TA or 4-HTA.

[7] = system: MCF 7 cells; assay: Stimulation of MCF 7 cell proliferation in estrogen free medium; format: cell-based, human; conditions: nine days, FIG. 5
Description: Cells were conditioned as described in Example 2, and then withdrawn from estrogen stimulation and incubated with phenol red free medium prepared with charcoal-stripped fetal calf serum. After five days, medium was changed and 4-HTA or estradiol were added as described in Example 2. After nine days, cell numbers were determined.
Each point is the average of 3-6 determinations. […] These findings indicate that 4-HTA is a pure estrogen with no residual estrogen antagonist activity.

[8] = Rat liver microsomal glucuronidation; conditions: rat, liver microsomes

Row | Compound | Vmax [2] | substrate for UDP glucuronyl transferase [2] | inhibition of growth/proliferation of MCF 7 human breast cancer cells [3] | estrogen receptor affinity relative to estradiol (affinity=100) [4] | reversal of the growth inhibitory effect of TAM on MCF 7 cells [6] | Km at 0.5 h [8] | other results
1 | 4-hydroxytamoxifen [4-HT] | 7.4 nmols/mg-min | – | – | – | – | – | Km [1]: 83 µM
2 | CCC(=C(c1ccc(O)cc1)c1ccc(OCC(=O)O)cc1)c1ccccc1 [4-HTA, (E,Z)-2-{4-[1-(p-hydroxyphenyl)-2-phenyl]-1-butenyl}phenoxyacetic acid] | 0.0 nmols/mg-min | not a substrate | Neither tamoxifen acid nor 4-HTA inhibits the growth; also recorded: no effect on proliferation | 21 | both compounds reverse the growth inhibitory effect; also recorded: reversed in a dose dependent manner | – | estrogen receptor affinity as percent of that of estradiol ([4]; [3H]estradiol, uterine cytosol from immature rats, FIG. 2): 21%; urinary elimination form ([5]; immature female rat): eliminated unchanged in the urine; presence in uterine or ovarian tissue ([5]; immature female rat, after [14C]TAM): not detected in uterine or ovarian tissue; maximal level of MCF 7 growth stimulation compared with estradiol [7]: stimulated growth to the same level as did estradiol; stimulation of MCF 7 cell growth ([7]; submicromolar concentrations): dose dependent stimulation of growth
3 | CCC(=C(c1ccc(O)cc1)c1ccc(OCC(=O)OC)cc1)c1ccccc1 [Methyl 4-HTA] | 16.5 nmols/mg-min | excellent substrate | – | – | – | 73 µM | –
4 | CCC(=C(c1ccccc1)c1ccc(OCC(=O)O)cc1)c1ccccc1 [TA, (E,Z)-4-(1,2-diphenyl-1-butenyl)phenoxyacetic acid] | 0.0 nmols/mg-min | – | Neither tamoxifen acid nor 4-HTA inhibits the growth | 0.01 | to a lesser extent | – | binding to the estrogen receptor ([4]; FIG. 2): also binds to the estrogen receptor; reversal of the growth inhibitory effect of TAM on MCF 7 cells ([6]; listed as tamoxifen acid): both compounds reverse the growth inhibitory effect
5 | CCC(=C(c1ccc(O)cc1)c1ccc(O)cc1)c1ccccc1 [TAM bis-phenol, 1,1-bis-(4-hydroxyphenyl)-2-phenyl-1-butene] | 14.7 nmols/mg-min | – | – | – | – | 54 µM | –
6 | CC/C(=C(\c1ccccc1)c1ccc(OCCN(C)C)cc1)c1ccccc1 [TAM, (Z)-2-[4-(1,2-diphenyl-1-butenyl)phenoxy]-N,N-dimethylethanamine] | – | – | potent inhibitor of cell growth | – | – | – | Percent of Dose Present as: Total 14C ([5]; feces, 0-24 hr after dosing): 30.49%; Percent of Dose Present as: Total 14C ([5]; feces, 24-48 hr after dosing): 16.05%; Percent of Dose Present as: Total 14C ([5]; liver, 24 hr after dosing): 20.25%; Percent of Dose Present as: Total 14C ([5]; liver, 48 hr after dosing): 2.84%; Percent of Dose Present as: Total 14C ([5]; urine, 0-24 hr after dosing): 8.70%; Percent of Dose Present as: Total 14C ([5]; uterus, 24 hr after dosing): 0.12%

Reference: patent publication US5189212A, “Triarylethylene carboxylic acids with estrogenic activity” (University of Georgia Research Foundation, Inc., priority 1990, dated 1993)
